Experiment [1] has as its system MRSA strain USA300. Kind of experiment: microbe, parasite or virus in culture. Conditions: Staphylococcus aureus, 6 h; for hemolysis at 10 µg/mL: read-out: ELISA α-hemolysin inhibition 10 μg/mL; for hemolysis at 1 µg/mL: read-out: ELISA α-hemolysin inhibition 1 μg/mL.
For experiment [2], the system named is hla transcription. Kind of experiment: hla transcription by qRT-PCR (FIG. 9A). Conditions: 6 h, versus DMSO; for transcription of hla (qRT-PCR, in words): 10 and 50 μg/ml, 37° C. (In general: Quantitative PCR measures a nucleic acid by following its amplification.)
Protocol: (§1) The effect of the compounds VII, X, XII, and XV on the transcription of hla and RNAIII was measured by qRT-PCR. S. aureus USA300 was incubated at 37° C. for 6 h in the presence of 0, 10, or 50 μg/ml of the compounds. The cultures were harvested, and total RNA was isolated using the RiboPure—bacterial RNA isolation kit (Ambion) with additional DNase I treatment. RNA yield and purity were assessed by measuring the ratio of UV absorbance at 260 and 280 nm, and the integrity of the RNA was assessed on a 1% denaturing agarose gel. High integrity RNA had two clear bands without smearing, indicating no fragmentation of 23S and 16S rRNA.
(§2) Real-time RT-PCR reactions were conducted using a SYBR—green mix (Bio-Rad). The data were analyzed using the ΔΔC2 and are represented as log2 of the treated sample/control sample (DMSO only).
The test system of experiment [3] is AgrC gene expression. The experiment can be described thus: AgrC gene expression in MRSA strain USA300 (FIG. 6). In kind it is cell-based, Staphylococcus aureus.
Experiment [4] deals with phenol-soluble modulin-a (psma) gene expression. The experiment can be described thus: phenol-soluble modulin-a (psma) gene expression in MRSA strain USA300 (FIG. 4). In kind it is cell-based, Staphylococcus aureus.
Experiment [5] deals with RNAIII gene expression. Kind of experiment: RNAIII gene expression in MRSA strain USA300 (FIG. 7). In kind it is cell-based, Staphylococcus aureus.
Experiment [6] concerns α-hemolysin gene expression. It is filed as cell-based, Staphylococcus aureus.
Experiment [7] has as its system AgrA gene expression. The experiment can be described thus: AgrA gene expression in MRSA strain USA300 (FIG. 5). It is filed as cell-based, Staphylococcus aureus.
Experiment [8] concerns Streptococcus pyogenes.
Protocol: During the first phase of in vitro testing the concentration of the compounds was kept constant at 100 mg/L in 2% DMSO.
For experiment [9], the system named is RNAIII transcription. The experiment can be described thus: RNAIII transcription by qRT-PCR (FIG. 9B). Conditions: 10 or 50 μg/ml; 37° C., 6 h; versus DMSO.
Protocol: as §1, §2

Each structure is given as a SMILES string. Entries after “also recorded” stand apart in the source; their conditions may differ.

In the case of `O=C(O)c1ccc(Oc2ccc(F)cc2)cc1` [XII], in experiment [1], the hemolysis at 10 µg/mL was 29.1 ± 11%. The “transcription of hla (qRT-PCR, in words)” value in experiment [2] is listed as “reduced”.

In the case of `O=C(O)c1cccc(-c2ccccc2)c1O` [XV], the AgrC gene expression result in [3] is “inhibit”. Also, the “phenol-soluble modulin-a (psma) gene expression” value in [4] is reported as “inhibit”. Also, in [5], the RNAIII gene expression result is on record as “inhibit”. Moreover, in experiment [1], the hemolysis at 1 µg/mL was found to be 49.4 ± 4.6% and the hemolysis at 10 µg/mL was 53 ± 5.9%. For the same compound, the α-hemolysin gene expression entry in experiment [6] is recorded as “inhibit”. Moreover, in experiment [7], the AgrA gene expression entry is listed as “inhibit”. The “rabbit blood hemolysis inhibition in Streptococcus pyogenes (in words)” value (from here on “rabbit blood hemolysis inhibition”) in experiment [8] is “active”.

Turning to `O=C(O)c1c(F)c(F)cc2ccccc12` [III], in experiment [1], the hemolysis at 1 µg/mL came to 20.8 ± 3.5% and the hemolysis at 10 µg/mL is 28.3 ± 3.4%.

Turning to `CCc1cc(C(=O)COc2ccccc2)c(O)cc1O` [VI], in experiment [1], the hemolysis at 1 µg/mL came to 55.2 ± 5.8% and the hemolysis at 10 µg/mL amounted to 76.3 ± 11.2%. Also, in experiment [6], the α-hemolysin gene expression result was “inhibit”. The AgrA gene expression entry in experiment [7] is listed as “inhibit”. The “rabbit blood hemolysis inhibition” value in [8] is “active”.

For `O=C(c1ccccc1)c1ccc(O)cc1O` [XIV], the hemolysis at 10 µg/mL in experiment [1] amounted to 26.7%.

Turning to `COc1cc(C(=O)N/N=C/c2cccc3ccccc23)ccc1O` [V], the AgrC gene expression result in experiment [3] is reported as “inhibit”. The “phenol-soluble modulin-a (psma) gene expression” value in experiment [4] is “inhibit”. Moreover, the RNAIII gene expression result in experiment [5] is “inhibit”. For the same compound, in experiment [1], the hemolysis at 1 µg/mL turned out to be 23 ± 1.3% and the hemolysis at 10 µg/mL stood at 88.4 ± 1.5%. Further, in [6], the α-hemolysin gene expression result is listed as “inhibit”. Moreover, the AgrA gene expression entry in experiment [7] is given as “inhibit”. In addition, the “rabbit blood hemolysis inhibition” value in experiment [8] was “active”.

With `O=C(O)c1ccc(-c2ccc(F)cc2)cc1` [XVI], in experiment [3], the AgrC gene expression result is recorded as “inhibit”. For the same compound, the “phenol-soluble modulin-a (psma) gene expression” value in experiment [4] was “inhibit”. Moreover, in experiment [5], the RNAIII gene expression entry is “inhibit”. In experiment [1], the hemolysis at 1 µg/mL stood at 0% and the hemolysis at 10 µg/mL is 68.8 ± 11.3%. Further, the α-hemolysin gene expression entry in experiment [6] is reported as “inhibit”. Also, the AgrA gene expression result in experiment [7] is “inhibit”. The “rabbit blood hemolysis inhibition” value in [8] was “active”. The “transcription of hla (qRT-PCR, in words)” value in experiment [2] is listed as “reduced”.

As for `O=C1Nc2cccc3cc(O)cc1c23` [I], in experiment [1], the hemolysis at 1 µg/mL is 28 ± 4.4% and the hemolysis at 10 µg/mL was 65 ± 2.5%.

Consider `O=C(/C=C/c1ccc2c(c1)OCO2)c1ccccc(=O)c1O` [IV], for which, in experiment [1], the hemolysis at 1 µg/mL stood at 40.2 ± 5.2% and the hemolysis at 10 µg/mL came to 73.6 ± 2.2%.

Take `O=C(O)c1ccc2cc(F)ccc2c1` [VIII]: the hemolysis at 10 µg/mL in [1] amounted to 56.3 ± 1.7%.

Consider `O=C(O)c1ccc(Oc2ccc(Cl)cc2)cc1` [XI], for which, in experiment [1], the hemolysis at 10 µg/mL came out at 36.3 ± 8.2%.

Turning to `O=C(O)c1ccc(-c2ccc(O)c(F)c2)cc1` [VII], the AgrC gene expression result in experiment [3] is on record as “inhibit”. Moreover, the “phenol-soluble modulin-a (psma) gene expression” value in experiment [4] is “inhibit”. Besides, in [5], the RNAIII gene expression entry is “inhibit”. Further, in [1], the hemolysis at 1 µg/mL was 31.3 ± 9% and the hemolysis at 10 µg/mL is 61 ± 14.8%. Moreover, in [6], the α-hemolysin gene expression result is reported as “inhibit”. Further, the AgrA gene expression result in experiment [7] is recorded as “inhibit”. In addition, the “rabbit blood hemolysis inhibition” value in [8] is on record as “active”. Also, the “transcription of hla (qRT-PCR, in words)” value in [2] is on record as “reduced”.

For `O=C(O)c1cc(-c2cccc(F)c2)ccc1O` [XIII], the hemolysis at 10 µg/mL in [1] was determined as 35.6 ± 12.5%.

Regarding `COc1cc(O)c(C(=O)c2ccccc2)cc1S(=O)(=O)O` [IX], in experiment [1], the hemolysis at 10 µg/mL stood at 41.9 ± 8.2%. For the same compound, the “rabbit blood hemolysis inhibition” value in [8] is “active”.

As for `O=C(O)c1cc(-c2ccc(F)cc2F)ccc1O` [X, diflunisal, reference compound], the AgrC gene expression result in [3] is on record as “inhibit”. Moreover, the “RNAIII expression (qRT-PCR, in words)” value in experiment [9] is “significant reduction; also recorded: reduced”. Further, the “phenol-soluble modulin-a (psma) gene expression” value in experiment [4] is “inhibit”. In addition, in [5], the RNAIII gene expression result is on record as “inhibit”. Moreover, in experiment [1], the hemolysis at 1 µg/mL was 33 ± 3.6% and the hemolysis at 10 µg/mL was determined as 62.3 ± 1.8%. The α-hemolysin gene expression entry in experiment [6] is given as “inhibit”. Moreover, in experiment [7], the AgrA gene expression result is “inhibit”. Moreover, the “rabbit blood hemolysis inhibition” value in [8] is “active”. In experiment [2] (50 μg/mL), the “reduction of hla expression” value is reported as ~3000 fold. Also, in experiment [2], the “transcription of hla (qRT-PCR, in words)” value was “reduced”.

Regarding `O=C(O)c1c(O)c(O)cc2ccccc12` [II], in [3], the AgrC gene expression entry is “inhibit”. In addition, the “phenol-soluble modulin-a (psma) gene expression” value in [4] was “inhibit”. Further, the RNAIII gene expression entry in [5] is “inhibit”. In [1], the hemolysis at 1 µg/mL worked out at 21.3 ± 5.2% and the hemolysis at 10 µg/mL came to 76 ± 1.2%. Also, the α-hemolysin gene expression result in experiment [6] is reported as “inhibit”. For the same compound, the AgrA gene expression result in experiment [7] was “inhibit”. The “rabbit blood hemolysis inhibition” value in experiment [8] is “active”.

The values above are taken from patent US11382882B2 (priority 2010, dated 2022).
